# In PMC10005750 (Molecules, 2023):
# Tests used:
# [1] = Pharmacokinetic interaction study after oral administration of DPZ and TAD, alone or in combination, in rats; conditions: rat; for CL/F (apparent systemic clearance): tadalafil 0.3 mg/kg oral, n = 3, mean ± SD
# Procedure: The rat plasma was stored at −70 °C. The plasma samples were thawed at room temperature and then centrifuged at 1800× g (4 °C) for 8 min before pipetting. Using a micropipette, 30 µL of the plasma sample was transferred into a polypropylene microtube, and 10 µL of IS working solution was added to each sample. Further, 0.2 mL of acetonitrile was then added and vortexed for 1 min. […] The supernatant was transferred to an analytical vessel, and 2 µL of the sample was injected into the LC-MS/MS system.
# Rats were divided into three groups (n = 3): group 1, DPZ (3 mg/kg); group 2, TAD (0.3 mg/kg); and group 3, DPZ (3 mg/kg) combined with TAD (0.3 mg/kg). Animals were fasted overnight and allowed free access to water.
# The peak plasma concentration, Cmax, and Tmax (the time to reach Cmax) for DPZ and TAD were calculated using individual plasma concentration–time profiles. […] The terminal half-life (T1/2) was calculated as ln 2/λz (λz is the elimination rate constant estimated by using the least-squares linear regression method of the terminal log-linear portion of the plasma concentration–time curve). The apparent clearance (CL/F) was calculated as CL/F = dose/AUC0-∞. The Mann–Whitney U test was used to determine the differences in the mean plasma concentration and PK profiles of DPZ and TAD between the single and combined administration groups. Statistical analysis was performed using SPSS Statistics (version 26.0; IBM SPSS Statistics for Windows, Armonk, NY, USA), and a p-value < 0.05 was considered statistically significant.
# [2] = Plasma sample stability at low and high QC under storage and handling conditions
# Procedure: Standard stock solutions of DPZ, TAD, and LPZ (IS) were prepared in methanol at a concentration of 100 µg/mL and stored at −20 °C. Working solutions were prepared by diluting the stock solutions with 50% methanol. The concentration of DPZ and TAD ranged from 1 to 200 ng/mL. […] The IS working solution was prepared by diluting the stock solution with 50% methanol to a concentration of 20 ng/mL. All working stock solutions were prepared and stored at −20 °C until use. Calibration standards and QC samples of DPZ and TAD in rat plasma were diluted with the corresponding working solutions and blank rat plasma. Drug-free plasma, that is, control (blank) plasma, stored in a deep freezer, was completely thawed at room temperature before use. Ten percent spiking with working DPZ and TAD stock solutions was performed in blank plasma. The spiked QC samples were stored at −70 °C for stability studies.
# Stability analyses of the stock solutions were performed at room temperature for 3 h and under refrigerated conditions (4 °C) for 14 days. The stability of the plasma analytes was tested for low and high QC under pre-specified conditions: room temperature for 5 h, refrigeration (4 °C) for 14 days, autosampler (10 °C) for 20 h, four cycles of freezing-thawing, and finally frozen conditions (−70 °C) for 28 days for long-term stability.
# [3] = male, Sprague-Dawley, plasma, po
# [4] = male, Sprague-Dawley, plasma, po, 0.3 mg/kg
smiles,measurement,setting,value
"CN1CC(=O)N2[C@H](c3ccc4c(c3)OCO4)c3[nH]c4ccccc4c3C[C@@H]2C1=O [Tadalafil, tadalafil]",Tmax,[1]; [3],0.5 h
same,half-life,[1]; [3],1.96 ± 0.212 h
same,AUC(0-inf),[1]; [4],50.4 ± 23.6 ng·h/mL
same,AUC(0-t),[1]; [4],47 ± 24.4 ng·h/mL
same,Cmax,[1]; [4],17.8 ± 6 ng/mL
same,MRT last,[1]; [4],2.53 ± 0.214 h
same,Tmax,[1]; [4],0.5 h
same,half-life,[1]; [4],1.52 ± 0.12 h
same,CL/F (apparent systemic clearance),[1]; alone,7.355 ± 4.516 L/h
same,CL/F (apparent systemic clearance),[1]; with DPZ 3 mg/kg,11.819 ± 9.852 L/h
same,"Plasma sample stability (Mean ± SD, %)","[2]; extracted rat plasma sample, autosampler (10 °C, 20 h), nominal 2 ng/mL",99.63 ± 6.03%
same,"Plasma sample stability (Mean ± SD, %)","[2]; extracted rat plasma sample, autosampler (10 °C, 20 h), nominal 160 ng/mL",102.18 ± 3.98%
same,"Plasma sample stability (Mean ± SD, %)","[2]; rat plasma, freeze-thaw (4 cycles), nominal 2 ng/mL",95.15 ± 2.69%
same,"Plasma sample stability (Mean ± SD, %)","[2]; rat plasma, freeze-thaw (4 cycles), nominal 160 ng/mL",103.60 ± 1.55%
same,"Plasma sample stability (Mean ± SD, %)","[2]; rat plasma, refrigeration (4 °C, 14 days), nominal 2 ng/mL",93.52 ± 3.03%
same,"Plasma sample stability (Mean ± SD, %)","[2]; rat plasma, refrigeration (4 °C, 14 days), nominal 160 ng/mL",107.44 ± 5.73%
same,"Plasma sample stability (Mean ± SD, %)","[2]; rat plasma, room temperature (5 h), nominal 2 ng/mL",95.75 ± 4.54%
same,"Plasma sample stability (Mean ± SD, %)","[2]; rat plasma, room temperature (5 h), nominal 160 ng/mL",95.18 ± 0.41%
same,"Plasma sample stability (Mean ± SD, %)","[2]; rat plasma, −70 °C (28 days), nominal 2 ng/mL",99.17 ± 3.88%
same,"Plasma sample stability (Mean ± SD, %)","[2]; rat plasma, −70 °C (28 days), nominal 160 ng/mL",104.42 ± 4.78%
same,stability in rat plasma under all examined conditions,"[2]; rat, plasma",stable
